In ChEMBL document CHEMBL1137864, “End-capping of the modified melanocortin tetrapeptide (p-Cl)Phe-D-Phe-Arg-Trp-NH2 as a route to hMC4R agonists” (Bioorg Med Chem Lett, 2004):

Tests used:
[1] = target: Melanocortin receptor (M1 and M4) (Homo sapiens) (UniProt P32245+Q01726); assay: Ratio of EC50 of Melanocortin 4 receptor to that of Melanocortin 1 receptor; type: protein assay
[2] = target: Melanocortin receptor (M3 and M4) (Homo sapiens) (UniProt P32245+P41968); assay: Ratio of EC50 of Melanocortin 4 receptor to that of Melanocortin 3 receptor; type: protein assay
Melanocortin receptor 3 = Melanocortin receptor 3 (Homo sapiens, UniProt P41968); assay: Agonistic activity against human Melanocortin 3 receptor; type: functional
[3] = target: Melanocyte-stimulating hormone receptor (Homo sapiens, UniProt Q01726); assay: Agonistic activity against human Melanocortin 1 receptor; type: functional
Melanocortin receptor 4 = Melanocortin receptor 4 (Homo sapiens, UniProt P32245); assay: Agonistic activity against human Melanocortin 4 receptor; type: functional
Sequence of Melanocortin receptor 4 (P32245 whole entry): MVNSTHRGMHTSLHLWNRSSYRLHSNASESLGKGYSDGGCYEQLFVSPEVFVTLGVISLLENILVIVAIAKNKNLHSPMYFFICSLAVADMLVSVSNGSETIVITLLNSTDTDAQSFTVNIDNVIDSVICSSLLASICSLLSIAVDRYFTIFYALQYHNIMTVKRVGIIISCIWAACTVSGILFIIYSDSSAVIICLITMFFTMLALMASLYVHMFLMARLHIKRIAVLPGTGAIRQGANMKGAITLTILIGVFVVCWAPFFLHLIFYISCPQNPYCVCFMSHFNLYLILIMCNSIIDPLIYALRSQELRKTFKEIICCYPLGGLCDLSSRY

Sequence of Melanocyte-stimulating hormone receptor (Q01726 whole entry): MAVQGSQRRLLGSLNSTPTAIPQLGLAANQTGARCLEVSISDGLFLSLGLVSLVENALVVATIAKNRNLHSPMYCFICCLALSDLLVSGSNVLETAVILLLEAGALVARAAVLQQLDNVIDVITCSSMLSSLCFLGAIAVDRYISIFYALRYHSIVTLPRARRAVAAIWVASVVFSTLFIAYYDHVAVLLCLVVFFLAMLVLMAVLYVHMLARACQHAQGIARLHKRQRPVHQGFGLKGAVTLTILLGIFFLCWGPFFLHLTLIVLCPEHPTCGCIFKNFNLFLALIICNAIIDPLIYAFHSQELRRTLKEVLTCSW
Sequence of Melanocortin receptor 3 (P41968 whole entry): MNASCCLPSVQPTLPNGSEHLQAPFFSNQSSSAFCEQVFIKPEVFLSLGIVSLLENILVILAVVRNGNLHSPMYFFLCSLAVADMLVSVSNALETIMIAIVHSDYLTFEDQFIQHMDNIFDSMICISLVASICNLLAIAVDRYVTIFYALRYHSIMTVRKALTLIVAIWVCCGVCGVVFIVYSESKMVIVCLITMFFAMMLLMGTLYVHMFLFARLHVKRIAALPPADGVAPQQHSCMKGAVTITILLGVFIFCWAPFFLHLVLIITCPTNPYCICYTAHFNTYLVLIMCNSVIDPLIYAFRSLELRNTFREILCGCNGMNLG

SMILES | Ratio [1] | Ratio [2] | EC50 (Melanocortin receptor 3) [nM] | EC50 [3] [nM] | EC50 (Melanocortin receptor 4) [nM]
COCC(=O)N[C@@H](Cc1ccc(Cl)cc1)C(=O)NC(Cc1ccccc1)C(=O)N[C@@H](CCCN=C(N)N)C(=O)N[C@@H](Cc1c[nH]c2ccccc12)C(N)=O (stereo in doubt) | 7 | 14 | 961 | 502 | 68.7
CC(=O)N[C@@H](Cc1ccc(Cl)cc1)C(=O)NC(Cc1ccccc1)C(=O)N[C@@H](CCCN=C(N)N)C(=O)N[C@@H](Cc1c[nH]c2ccccc12)C(N)=O (stereo in doubt) | 10 | 6 | 553 | 867 | 88.5
N=C(N)NCCC[C@H](NC(=O)C(Cc1ccccc1)NC(=O)[C@H](Cc1ccc(Cl)cc1)NC(=O)CCCCc1ccccc1)C(=O)N[C@@H](Cc1c[nH]c2ccccc12)C(N)=O (stereo in doubt) | 3 | 1 | 34.5 | 144 | 45
CC(=O)N[C@@H](Cc1c[nH]cn1)C(=O)NC(Cc1ccccc1)C(=O)NC(Cc1ccccc1)C(=O)N[C@@H](CCCN=C(N)N)C(=O)N[C@@H](Cc1c[nH]c2ccccc12)C(N)=O (stereo in doubt) | 0.1 | 0.7 | 170 | 13 | 59.5
C=CCNC(=O)N[C@@H](Cc1ccc(Cl)cc1)C(=O)NC(Cc1ccccc1)C(=O)N[C@@H](CCCNC(=N)N)C(=O)N[C@@H](Cc1c[nH]c2ccccc12)C(N)=O (stereo in doubt) | 42 | 4 | 45 | 505 | 12
N=C(N)NCCC[C@H](NC(=O)C(Cc1ccccc1)NC(=O)[C@H](Cc1ccc(Cl)cc1)NC(=O)CCC(=O)c1ccc(F)cc1)C(=O)N[C@@H](Cc1c[nH]c2ccccc12)C(N)=O (stereo in doubt) | 2 | 4 | 203 | 114 | 50
N=C(N)NCCC[C@H](NC(=O)C(Cc1ccccc1)NC(=O)[C@H](Cc1ccc(Cl)cc1)NC(=O)c1cccnc1)C(=O)N[C@@H](Cc1c[nH]c2ccccc12)C(N)=O (stereo in doubt) | 28 | 15 | 313 | 577 | 21
N=C(N)NCCC[C@H](NC(=O)C(Cc1ccccc1)NC(=O)[C@H](Cc1ccc(Cl)cc1)NC(=O)CNC=O)C(=O)N[C@@H](Cc1c[nH]c2ccccc12)C(N)=O (stereo in doubt) | 43 | 54 | 757 | 600 | 14.1
N=C(N)NCCC[C@H](NC(=O)C(Cc1ccccc1)NC(=O)[C@H](Cc1ccc(Cl)cc1)NC(=O)CC(F)(F)F)C(=O)N[C@@H](Cc1c[nH]c2ccccc12)C(N)=O (stereo in doubt) | 8 | – | 886 | 1210 | 150
CNC(=O)N[C@@H](Cc1ccc(Cl)cc1)C(=O)NC(Cc1ccccc1)C(=O)N[C@@H](CCCN=C(N)N)C(=O)N[C@@H](Cc1c[nH]c2ccccc12)C(N)=O (stereo in doubt) | 100 | 10 | 86.5 | 848 | 8.5
COP(=O)(N[C@@H](Cc1ccc(Cl)cc1)C(=O)NC(Cc1ccccc1)C(=O)N[C@@H](CCCN=C(N)N)C(=O)N[C@@H](Cc1c[nH]c2ccccc12)C(N)=O)OC (stereo in doubt) | 6 | 19 | 2640 | 785 | 137
N=C(N)NCCC[C@H](NC(=O)C(Cc1ccccc1)NC(=O)[C@H](Cc1ccc(Cl)cc1)NC(=O)c1c(F)c(F)c(F)c(F)c1F)C(=O)N[C@@H](Cc1c[nH]c2ccccc12)C(N)=O (stereo in doubt) | 3 | 8 | 1340 | 555 | 168
N=C(N)NCCC[C@H](NC(=O)C(Cc1ccccc1)NC(=O)[C@H](Cc1ccc(Cl)cc1)NC(=O)c1ccsc1)C(=O)N[C@@H](Cc1c[nH]c2ccccc12)C(N)=O (stereo in doubt) | 25 | 25 | 674 | 671 | 27
N#CCC(=O)N[C@@H](Cc1ccc(Cl)cc1)C(=O)NC(Cc1ccccc1)C(=O)N[C@@H](CCCNC(=N)N)C(=O)N[C@@H](Cc1c[nH]c2ccccc12)C(N)=O (stereo in doubt) | 54 | 290 | 3040 | 567 | 10.5
N=C(N)NCCC[C@H](NC(=O)C(Cc1ccccc1)NC(=O)[C@H](Cc1ccc(Cl)cc1)NC(=O)COc1ccccc1)C(=O)N[C@@H](Cc1c[nH]c2ccccc12)C(N)=O (stereo in doubt) | 4 | 5 | 859 | 841 | 185
CCC(=O)N[C@@H](Cc1ccc(Cl)cc1)C(=O)NC(Cc1ccccc1)C(=O)N[C@@H](CCCN=C(N)N)C(=O)N[C@@H](Cc1c[nH]c2ccccc12)C(N)=O (stereo in doubt) | 12 | 15 | 2360 | 1980 | 159

SMILES | Ratio [1] | Ratio [2] | EC50 (Melanocortin receptor 3) [nM] | EC50 [3] [nM] | EC50 (Melanocortin receptor 4) [nM]
CSCC(=O)N[C@@H](Cc1ccc(Cl)cc1)C(=O)NC(Cc1ccccc1)C(=O)N[C@@H](CCCN=C(N)N)C(=O)N[C@@H](Cc1c[nH]c2ccccc12)C(N)=O (stereo in doubt) | 10 | 26 | 1020 | 378 | 39.3
CC(C)C(=O)N[C@@H](Cc1ccc(Cl)cc1)C(=O)NC(Cc1ccccc1)C(=O)N[C@@H](CCCN=C(N)N)C(=O)N[C@@H](Cc1c[nH]c2ccccc12)C(N)=O (stereo in doubt) | 5 | 4 | 497 | 565 | 123
N=C(N)NCCC[C@H](NC(=O)C(Cc1ccccc1)NC(=O)[C@H](Cc1ccc(Cl)cc1)NC(=O)C(N)=O)C(=O)N[C@@H](Cc1c[nH]c2ccccc12)C(N)=O (stereo in doubt) | 11 | 5 | 164 | 349 | 31.3
N=C(N)NCCC[C@H](NC(=O)C(Cc1ccccc1)NC(=O)[C@H](Cc1ccc(Cl)cc1)NC(=O)CCC(=O)c1cc(F)cc(F)c1)C(=O)N[C@@H](Cc1c[nH]c2ccccc12)C(N)=O (stereo in doubt) | 0.4 | 1.5 | 140 | 41 | 96
N=C(N)NCCC[C@H](NC(=O)C(Cc1ccccc1)NC(=O)[C@H](Cc1ccc(Cl)cc1)NC(=O)c1ccncc1)C(=O)N[C@@H](Cc1c[nH]c2ccccc12)C(N)=O (stereo in doubt) | 18 | 33 | 992 | 541 | 30
N=C(N)NCCC[C@H](NC(=O)C(Cc1ccccc1)NC(=O)[C@H](Cc1ccc(Cl)cc1)NC(=O)CCCC(=O)c1ccccc1)C(=O)N[C@@H](Cc1c[nH]c2ccccc12)C(N)=O (stereo in doubt) | 0.4 | 0.7 | 41 | 23 | 58
N=C(N)NCCC[C@H](NC(=O)C(Cc1ccccc1)NC(=O)C(Cc1ccccc1)NC(=O)[C@H](Cc1c[nH]cn1)NC(=O)CCCC(=O)c1ccccc1)C(=O)N[C@@H](Cc1c[nH]c2ccccc12)C(N)=O (stereo in doubt) | 0.01 | – | 3 | 0.05 | 5
N=C(N)NCCC[C@H](NC(=O)C(Cc1ccccc1)NC(=O)[C@H](Cc1ccc(Cl)cc1)NC(=O)CO)C(=O)N[C@@H](Cc1c[nH]c2ccccc12)C(N)=O (stereo in doubt) | 4 | 13 | 1450 | 499 | 114
N=C(N)NCCC[C@H](NC(=O)C(Cc1ccccc1)NC(=O)[C@H](Cc1ccc(Cl)cc1)NC(=O)Cc1ccccc1)C(=O)N[C@@H](Cc1c[nH]c2ccccc12)C(N)=O (stereo in doubt) | 35 | 2 | 43 | 699 | 20
N=C(N)NCCC[C@H](NC(=O)C(Cc1ccccc1)NC(=O)[C@H](Cc1ccc(Cl)cc1)NC(=O)c1cccs1)C(=O)N[C@@H](Cc1c[nH]c2ccccc12)C(N)=O (stereo in doubt) | 48 | 34 | 644 | 892 | 18.7
N=C(N)NCCC[C@H](NC(=O)C(Cc1ccccc1)NC(=O)[C@H](Cc1ccc(Cl)cc1)NC(=O)Nc1ccccc1)C(=O)N[C@@H](Cc1c[nH]c2ccccc12)C(N)=O (stereo in doubt) | 7 | 0.6 | 92.5 | 985 | 146
CCCC(=O)N[C@@H](Cc1ccc(Cl)cc1)C(=O)NC(Cc1ccccc1)C(=O)N[C@@H](CCCN=C(N)N)C(=O)N[C@@H](Cc1c[nH]c2ccccc12)C(N)=O (stereo in doubt) | 8 | 8 | 827 | 803 | 106
CCCCC(=O)N[C@@H](Cc1ccc(Cl)cc1)C(=O)NC(Cc1ccccc1)C(=O)N[C@@H](CCCN=C(N)N)C(=O)N[C@@H](Cc1c[nH]c2ccccc12)C(N)=O (stereo in doubt) | 3 | 3 | 460 | 441 | 155
N=C(N)NCCC[C@H](NC(=O)C(Cc1ccccc1)NC(=O)[C@H](Cc1ccc(Cl)cc1)NC(=O)C1CC1)C(=O)N[C@@H](Cc1c[nH]c2ccccc12)C(N)=O (stereo in doubt) | 14 | 12 | 473 | 536 | 38.5
N=C(N)NCCC[C@H](NC(=O)C(Cc1ccccc1)NC(=O)[C@H](Cc1ccc(Cl)cc1)NC(=O)CCCc1ccccc1)C(=O)N[C@@H](Cc1c[nH]c2ccccc12)C(N)=O (stereo in doubt) | 1 | 3 | 207 | 113 | 82
